Experimental data published in patent publication US6855730B2, “3-methylidenyl-2-indolinone modulators of protein kinase” (Sugen, Inc., priority 1998, dated 2005).
pIC50: −log10 of the molar value.

Legend:
[1] = biological target: T1, PDGFR-β (Homo sapiens, UniProt P09619); experiment: Biochemical PDGFR assay (ELISA, PDGFR-β expressing NIH 3T3 cell lysate); conditions: read-out: bio PDGF IC50
T1 construct: host or cells: NIH 3T3
Excerpt: This assay measures the in vitro kinase activity of PDGFR using ELISA.
Unless otherwise noted, the preparation of working solution-of the following reagents is the same as that for the Biochemical EGFR assay, above. • 1. […] 28D4C10 monoclonal anti-PDGFR antibody (Biochemistry Lab, SUGEN, Inc.). • 3. PBS (Dulbecco's Phosphate-Buffered Saline, Gibco Catalog No. 450-1300EB) • 4. TBST Buffer. • 5. Blocking Buffer. • 6. PDGFR-β expressing NIH 3T3 cell lysate (Screening Lab, SUGEN, Inc.). • 7. TBS Buffer. • 8. TBS+10% DMSO. • 9. […] MnCl2. • 11. Kinase buffer phosphorylation mix.
• 12. NUNC 96-well V bottom polypropylene plates (Applied Scientific Cat. No. AS-72092). • 13. Ethylenediaminetetraacetic acid (EDTA). • 14. Rabbit polyclonal anti-phosphotyrosine serum (Biochemistry Lab, SUGEN, Inc.). • 15. Goat anti-rabbit IgG peroxidase conjugate (Biosource Cat. No. ALI0404). • 16. 2,2′-azino-bis(3-ethylbenzthiazoline-6-sulfonic acid) (ABTS, Sigma Cat. No. A-1888). • 17. Hydrogen peroxide 30% solution (Fisher Cat. No. H325). • 18. ABTS/H2O2. • 19. 0.2 M HCl.
Procedure • 1. Coat Corning 96 well ELISA plates with 0.5 μg 28D4C10 in 100 μl PBS per well, store overnight at 4° C. • 2. Remove unbound 28D4C10 from wells by inverting plate to remove liquid. Wash 1× with dH2O. Pat the plate on a paper towel to remove excess liquid. • 3. Add 150 μl of Blocking Buffer to each well. Incubate for 30 min. at room temperature with shaking. • 4. Wash plate 3× with deionized water, then once with TBST. Pat plate on a paper towel to remove excess liquid and bubbles. • 5. Dilute lysate in HNTG (10 μg lysate/100 μl HNTG) • 6. Add 100 μl of diluted lysate to each well. Shake at room temperature for 60 min. • 7. Wash plates as described in 4, above. • 8. Add 80 μl working kinase buffer mix to ELISA plate containing captured PDGFR. • 9. Dilute test compound 1:10 in TBS in 96-well polypropylene plates (i.e., 10 μl compound+90 μl TBS). • 10. Add 10 μl diluted test compound to ELISA plate. […] Incubate for 30 minutes while shaking at room temperature. • 12. Add 10 μl ATP directly to all wells except negative control well (final well volume should be approximately 100 μl with 20 μM ATP in each well.) Incubate 30 minutes while shaking. • 13. After 30 minutes, stop reaction by adding 10 μl of 200 mM EDTA (pH 8.0) to each well. • 14. Wash 4× with deionized water, twice with TBST. • 15. Add 100 μl anti-phosphotyrosine (1:3000 dilution in TBST) per well. Incubate 30-45 min. at room temperature, with shaking. • 16. Wash as described in 4, above. • 17. Add 100 μl Biosource Goat anti-rabbit IgG peroxidase conjugate (1:2000 dilution in TBST) to each well. Incubate 30 min. at room temperature, with shaking. • 18. Wash as described in 4, above. • 19. Add 100 μl of ABTS/H2O2 solution to each well. • 20. Incubate 10 to 30 minutes with shaking. Remove any bubbles. • 21. If necessary stop reaction with the addition of 100 μl 0.2 M HCl per well. • 22. Read assay on Dynatech MR7000 ELISA reader: test filter: 410 nM, reference filter: 630 nM.

[2] = biological target: T2, flkGST (Homo sapiens, UniProt P35968); experiment: bio flkGST assay; type: biochemical
T2 construct: GST

[3] = biological target: EGFR (Homo sapiens, UniProt P00533); experiment: Biochemical EGFR assay (ELISA, A431 cell lysate); parameters: A431 cell lysate (Screening Lab, SUGEN, Inc.); host or cells: A431; conditions: read-out: bio EGFr IC50
Method: This assay measures the in vitro kinase activity of EGFR using ELISA.
Materials and Reagents • 1. […] SUMO1 monoclonal anti-EGFR antibody (Biochemistry Lab, SUGEN, Inc.). • 3. PBS (Dulbecco's Phosphate-Buffered Saline, Gibco Catalog No. 450-1300EB). • 4. TBST Buffer
• 6. A431 cell lysate (Screening Lab, SUGEN, Inc.) • 7. TBS Buffer:
Prepare a 1.0 mM solution in dH2O. This reagent should be made up immediately prior to use and kept on ice. • 10. MnCl2.
Prepare a 1.0 M stock solution in dH2O. • 11. ATP/MnCl2 phosphorylation mix
This reagent should be prepared immediately before use and kept on ice. • 12. NUNC 96-well V bottom polypropylene plates (Applied Scientific Cat. No. AS-72092). • 13. Ethylenediaminetetraacetic acid (EDTA)
Prepare 200 mM working solution in dH2O. Adjust to pH 8.0 with 10 N NaOH. • 14. Rabbit polyclonal anti-phosphotyrosine serum (Biochemistry Lab, SUGEN, Inc.) • 15. Goat anti-rabbit IgG peroxidase conjugate (Biosource Cat. No. ALI0404) • 16. ABTS (2,2′-azino-bis(3-ethylbenzthiazoline-6-sulfonic acid), Sigma Cat. No. A-1888).
Mix first two ingredients in about 900 ml dH2O, adjust pH to 4.0 with phosphoric acid. Add ABTS, cover, let sit about 0.5 hr., filter. The solution should be kept in the dark at 4° C. until ready to use. • 17. Hydrogen peroxide 30% solution (Fisher Cat. No. H325) • 18. ABTS/H2O2 • Mix 15 ml ABTS solution and 2.0 μl H2O2. Prepare 5 minutes before use. • 19. 0.2 M HCl
Procedure • 1. Coat Corning 96 well ELISA plates with 0.5 μg SUMO1 in 100 μl PBS per well, store overnight at 4° C. • 2. Remove unbound SUMO1 from wells by inverting plate to remove liquid., Wash 1× with dH2O. Pat the plate on a paper towel to remove excess liquid. • 3. Add 150 μl of Blocking Buffer to each well. Incubate for 30 min. at room temperature with shaking. • 4. Wash plate 3× with deionized water, then once with TBST. Pat plate on a paper towel to remove excess liquid and bubbles. • 5. Dilute lysate in PBS (7 μg lysate/100 μl PBS). • 6. Add 100 μl of diluted lysate to each well. Shake at room temperature for 60 min. • 7. Wash plates as described in 4, above. • 8. Add 120 μl TBS to ELISA plate containing captured EGFR. • 9. Dilute test compound 1:10 in TBS in 96-well polypropylene plates (i.e. 10 μl compound+90 μl TBS). • 10. Add 13.5 μl diluted test compound to ELISA plate. […] Incubate for 30 minutes while shaking at room temperature. • 12. […] After 5 minutes, stop reaction by adding 16.5 μl of 200 mM EDTA (pH 8.0) to each well, shaking continuously. After the EDTA has been added, shake for 1 min. • 14. Wash 4× with deionized water, twice with TBST. • 15. Add 100 μl anti-phosphotyrosine (1:3000 dilution in TBST) per well. Incubate 30-45 min. at room temperature, with shaking. • 16. Wash as described in 4, above. • 17. Add 100 μl Biosource Goat anti-rabbit IgG peroxidase conjugate (1:2000 dilution in TBST) to each well. Incubate 30 min. at room temperature, with shaking. • 18. Wash as described in 4, above. • 19. Add 100 μl of ABTS/H2O2 solution to each well. • 20. Incubate 5 to 10 minutes with shaking. Remove any bubbles. • 21. If necessary stop reaction with the addition of 100 μl 1 0.2 M HCl per well. • 22. Read assay on Dynatech MR7000 ELISA reader. Test Filter: 410 nM Reference Filter: 630 Nm.

[4] = biological target: T3, chimeric receptor containing the EGFR extracellular domain and intracellular HER2 kinase domain (Homo sapiens, UniProt P04626); experiment: EGF Receptor-HER2 chimeric receptor assay in whole cells (ELISA); type: cell-based; conditions: read-out: HER-2 kinase IC50
T3 construct: fused on or other part: EGFR ectodomain + HER2 intracellular part, ATP-site indolinones: HER2's kinase
Method: EGF Receptor-HER2 Chimeric Receptor Assay In Whole Cells.
HER2 kinase activity in whole EGFR-NIH3T3 cells are measured as described below:
• a. […] 05-101 (UBI) (a monoclonal antibody recognizing an EGFR extracellular domain). • c. Anti-phosphotyrosine antibody (anti-Ptyr) (polyclonal) (see, Fendley, et al., supra). • d. Detection antibody: Goat anti-rabbit IgG horseradish peroxidase conjugate, TAGO, Inc., Burlingame, Calif. • e. TBST buffer:
• h. Stock reagents of:
Pre-coat ELISA Plate • 1. […] Coated plates are good for up to 10 days when stored at 4° C. • 2. On day of use, remove coating buffer and replace with 100 μl blocking buffer (5% Carnation Instant Non-Fat Dry Milk in PBS). Incubate the plate, shaking, at room temperature (about 23° C. to 25° C.) for 30 minutes. Just prior to use, remove blocking buffer and wash plate 4 times with TBST buffer.
Seeding Cells • 1. An NIH3T3 cell line overexpressing a chimeric receptor containing the EGFR extracellular domain and intracellular HER2 kinase domain can be used for this assay. • 2. Choose dishes having 80-90% confluence for the experiment. Trypsinize cells and stop reaction by adding 10% fetal bovine serum. Suspend cells in DMEM medium (10% CS DMEM medium) and centrifuge once at 1500 rpm, at room temperature for 5 minutes. • 3. Resuspend cells in seeding medium (DMEM, 0.5% bovine serum), and count the cells using trypan blue. Viability above 90% is acceptable. Seed cells in DMEM medium (0.5% bovine serum) at a density of 10,000 cells per well, 100 μl per well, in a 96 well microtiter plate. Incubate seeded cells in 5% CO2. at 37° C. for about 40 hours.
Assay Procedures • 1. Check seeded cells for contamination using an inverted microscope. Dilute drug stock (10 mg/ml in DMSO) 1:10 in DMEM medium, then transfer 5 μl to a […] well for a final drug dilution of 1:200 and a final DMSO concentration of 1%. Control wells receive DMSO alone. Incubate in 5% CO2 at 37° C. for two hours. • 2. Prepare EGF ligand: dilute stock EGF in DMEM so that upon transfer of 10 μl dilute EGF (1:12 dilution), 100 nM final concentration is attained. • 3. Prepare fresh HNTG* sufficient for 100 μl per well, and place on ice.
• 4. After 120 minutes incubation with drug, add prepared […] ligand to cells, 10 μl per well, to a final concentration of 100 nM. Control wells receive DMEM alone. Incubate with shaking, at room temperature, for 5 minutes. • 5. Remove drug, EGF, and DMEM. Wash cells twice with PBS. Transfer HNTG* to cells, 100 μl per well. Place on ice for 5 minutes. Meanwhile, remove blocking buffer from other ELISA plate and wash with TBST as described above. • 6. With a pipette tip securely fitted to a micropipettor, scrape cells from plate and homogenize cell material by repeatedly aspirating and dispensing the HNTG* lysis buffer. Transfer lysate to a coated, blocked, and washed ELISA plate. Incubate shaking at room temperature for one hour. • 7. Remove lysate and wash 4 times with TBST. Transfer freshly diluted anti-Ptyr antibody to ELISA plate at 100 μl per well. Incubate shaking at room temperature for 30 minutes in the presence of the anti-Ptyr antiserum (1:3000 dilution in TBST). • 8. Remove the anti-Ptyr antibody and wash 4 times with TBST. Transfer the freshly diluted TAGO anti-rabbit IgG antibody to the ELISA plate at 100 μl per well. Incubate shaking at room temperature for 30 minutes (anti-rabbit IgG antibody: 1:3000 dilution in TBST). • 9. Remove TAGO detection antibody and wash 4 times with TBST. Transfer freshly prepared ABTS/H2O2 solution to ELISA plate, 100 μl per well. Incubate shaking at room temperature for 20 minutes. (ABTS/H2O2 solution: 1.0 μl 30% H2O2 in 10 ml ABTS stock). • 10. Stop reaction by adding 50 μl 5N H2SO4 (optional), and determine O.D. at 410 nm. • 11. The maximal phosphotyrosine signal is determined by subtracting the value of the negative controls from the positive controls. […]

T2 sequence (P35968 786-1356 limits assumed): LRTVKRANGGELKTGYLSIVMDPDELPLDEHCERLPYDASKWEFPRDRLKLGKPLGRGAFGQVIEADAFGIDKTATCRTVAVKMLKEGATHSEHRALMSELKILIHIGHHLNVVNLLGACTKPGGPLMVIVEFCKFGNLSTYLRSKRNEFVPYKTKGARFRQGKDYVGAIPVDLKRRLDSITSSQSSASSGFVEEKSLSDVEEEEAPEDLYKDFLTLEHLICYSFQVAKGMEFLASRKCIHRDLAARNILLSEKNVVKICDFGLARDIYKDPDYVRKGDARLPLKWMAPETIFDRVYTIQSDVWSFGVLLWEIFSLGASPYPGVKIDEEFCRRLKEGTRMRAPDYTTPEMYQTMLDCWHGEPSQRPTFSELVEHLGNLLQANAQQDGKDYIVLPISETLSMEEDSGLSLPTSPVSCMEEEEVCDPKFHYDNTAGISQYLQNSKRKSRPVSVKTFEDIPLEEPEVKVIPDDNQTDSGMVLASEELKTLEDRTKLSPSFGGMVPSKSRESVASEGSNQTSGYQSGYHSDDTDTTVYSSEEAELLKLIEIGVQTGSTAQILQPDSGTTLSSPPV
T1 sequence (P09619 33-1106): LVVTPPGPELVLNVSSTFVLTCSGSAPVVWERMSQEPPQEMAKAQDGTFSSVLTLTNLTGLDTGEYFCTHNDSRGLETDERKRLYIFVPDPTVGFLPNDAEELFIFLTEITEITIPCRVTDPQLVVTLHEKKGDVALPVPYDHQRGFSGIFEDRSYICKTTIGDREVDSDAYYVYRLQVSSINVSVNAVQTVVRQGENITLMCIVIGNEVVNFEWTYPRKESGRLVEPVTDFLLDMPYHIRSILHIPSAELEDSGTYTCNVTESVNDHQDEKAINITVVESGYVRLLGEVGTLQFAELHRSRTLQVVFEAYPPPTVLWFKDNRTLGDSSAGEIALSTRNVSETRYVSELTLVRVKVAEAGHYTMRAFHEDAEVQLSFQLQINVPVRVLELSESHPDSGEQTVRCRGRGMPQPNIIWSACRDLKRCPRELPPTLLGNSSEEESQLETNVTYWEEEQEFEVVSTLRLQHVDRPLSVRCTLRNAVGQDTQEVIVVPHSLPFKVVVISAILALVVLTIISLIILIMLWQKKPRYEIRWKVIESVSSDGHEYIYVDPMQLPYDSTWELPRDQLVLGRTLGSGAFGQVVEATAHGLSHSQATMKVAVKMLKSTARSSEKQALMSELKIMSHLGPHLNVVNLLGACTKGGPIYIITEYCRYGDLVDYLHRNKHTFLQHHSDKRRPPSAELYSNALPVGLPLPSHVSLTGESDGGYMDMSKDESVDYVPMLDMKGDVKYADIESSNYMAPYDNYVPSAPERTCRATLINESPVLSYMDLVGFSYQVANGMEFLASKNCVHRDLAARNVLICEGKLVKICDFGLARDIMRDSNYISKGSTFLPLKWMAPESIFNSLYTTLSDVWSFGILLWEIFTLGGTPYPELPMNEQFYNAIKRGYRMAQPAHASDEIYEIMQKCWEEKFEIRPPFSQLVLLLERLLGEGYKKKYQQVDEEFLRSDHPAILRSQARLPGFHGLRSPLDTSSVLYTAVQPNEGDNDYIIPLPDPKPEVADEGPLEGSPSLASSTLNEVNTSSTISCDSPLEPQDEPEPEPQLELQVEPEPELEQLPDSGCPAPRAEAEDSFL
T3 sequence (P04626 720-1255 limits assumed, change not shown): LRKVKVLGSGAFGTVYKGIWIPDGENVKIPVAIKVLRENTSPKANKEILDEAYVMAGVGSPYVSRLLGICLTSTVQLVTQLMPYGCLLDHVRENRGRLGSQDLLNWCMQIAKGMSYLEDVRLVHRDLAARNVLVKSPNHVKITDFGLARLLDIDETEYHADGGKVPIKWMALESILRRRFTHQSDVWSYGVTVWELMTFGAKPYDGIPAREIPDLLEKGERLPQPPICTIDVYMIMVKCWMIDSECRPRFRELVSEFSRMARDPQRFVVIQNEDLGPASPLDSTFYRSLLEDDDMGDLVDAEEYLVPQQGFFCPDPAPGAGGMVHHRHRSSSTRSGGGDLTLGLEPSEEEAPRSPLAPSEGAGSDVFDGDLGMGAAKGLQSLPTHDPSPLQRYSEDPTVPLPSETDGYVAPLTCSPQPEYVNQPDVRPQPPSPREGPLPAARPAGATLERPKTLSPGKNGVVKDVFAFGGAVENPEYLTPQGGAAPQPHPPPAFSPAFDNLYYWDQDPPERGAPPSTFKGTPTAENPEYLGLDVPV
EGFR, sequence (P00533 25-1210): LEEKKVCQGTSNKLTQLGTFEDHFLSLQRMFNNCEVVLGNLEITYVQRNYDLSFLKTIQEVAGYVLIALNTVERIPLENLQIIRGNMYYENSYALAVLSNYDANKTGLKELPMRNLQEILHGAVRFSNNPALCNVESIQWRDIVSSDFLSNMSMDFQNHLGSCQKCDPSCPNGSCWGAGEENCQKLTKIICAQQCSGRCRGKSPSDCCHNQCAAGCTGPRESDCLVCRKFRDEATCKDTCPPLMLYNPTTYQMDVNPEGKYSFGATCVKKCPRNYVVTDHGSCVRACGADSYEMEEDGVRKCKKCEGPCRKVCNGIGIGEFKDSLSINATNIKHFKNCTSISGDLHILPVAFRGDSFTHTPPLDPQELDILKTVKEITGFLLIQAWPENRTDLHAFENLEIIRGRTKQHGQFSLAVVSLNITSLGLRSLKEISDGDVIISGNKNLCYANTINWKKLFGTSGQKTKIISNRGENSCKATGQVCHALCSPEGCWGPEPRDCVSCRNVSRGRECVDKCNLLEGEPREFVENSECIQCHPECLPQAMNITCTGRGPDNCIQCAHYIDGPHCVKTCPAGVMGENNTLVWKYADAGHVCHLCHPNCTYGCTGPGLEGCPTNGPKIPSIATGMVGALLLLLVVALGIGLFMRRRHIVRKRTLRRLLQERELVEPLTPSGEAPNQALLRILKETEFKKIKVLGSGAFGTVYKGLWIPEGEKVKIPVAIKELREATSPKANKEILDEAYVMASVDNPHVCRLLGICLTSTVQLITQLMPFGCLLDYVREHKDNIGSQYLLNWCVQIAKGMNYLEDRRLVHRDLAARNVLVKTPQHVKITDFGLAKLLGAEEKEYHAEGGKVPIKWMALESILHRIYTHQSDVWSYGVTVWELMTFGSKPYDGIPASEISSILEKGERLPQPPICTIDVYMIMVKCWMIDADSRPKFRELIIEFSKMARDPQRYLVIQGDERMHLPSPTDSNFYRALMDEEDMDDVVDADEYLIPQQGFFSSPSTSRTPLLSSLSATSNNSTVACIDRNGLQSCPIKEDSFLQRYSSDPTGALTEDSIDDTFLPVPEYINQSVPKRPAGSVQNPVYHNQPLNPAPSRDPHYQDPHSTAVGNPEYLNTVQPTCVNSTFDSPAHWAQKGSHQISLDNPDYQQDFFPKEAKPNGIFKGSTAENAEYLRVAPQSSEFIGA

| pIC50 [1] | pIC50 [2] | pIC50 [3] | pIC50 [4] | Structure (SMILES) |
| --- | --- | --- | --- | --- |
| 5.00 | 5.20 |  |  | CCOC(=O)c1c(C)[nH]c(/C=C2\C(=O)Nc3ccc(OC)cc32)c1CCCN(C)C [Example 120, 4-(3-Dimethylaminopropyl)-5-(5-methoxy-2-oxo-1,2-dihydroindol-3-ylidenemethyl)-2-methyl-1H-pyrrole-3-carboxylic acid ethyl ester] |
| 5.57 | 5.09 |  |  | CCOC(=O)c1c(C)[nH]c(/C=C2\C(=O)Nc3ccc(S(N)(=O)=O)cc32)c1CCCN(C)C [Example 133, 4-(3-Dimethylaminopropyl)-2-methyl-5-(2-oxo-5-sulfamoyl-1,2-dihydroindol-3-ylidenemethyl)-1H-pyrrole-3-carboxylic acid ethyl ester] |
| 6.19 | 6.15 |  |  | COc1ccc2c(c1)/C(=C/c1[nH]c3ccccc3c1CCCN(C)C)C(=O)N2 [Example 151, 3-[3-(3-Dimethylaminopropyl)-1H-indol-2-ylmethylene]-5-methoxy-1,3-dihydroindol-2-one] |
|  |  | < 4.00 | < 4.00 | Cc1c(C=C2C(=O)Nc3ccc(S(=O)(=O)N(C)C)cc32)[nH]c2ccccc12 (racemic) [Example 155, 3-(3-Methyl-1H-indol-2-ylmethylene)-2-oxo-2,3-dihydro-1H-indole-5-sulfonic acid dimethylamide] |
